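Growth conditions: 96-well plates. Treatment: test compound, 48 hours, 5 concentrations. Analysis: linear interpolation between bracketing concentrations; unreached endpoints set to highest concentration. GI50 marks 50% less growth.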 The source made the active and inactive calls. No stated cut-off is given here; in the data, active = GI50 up to about 1.1 µM and inactive = higher.
Assays:
Experiment in all cases: NCI tumour cell line growth inhibition, 48 h
SW-620 = tested on: SW-620
BT-549 = tested on: BT-549
UACC-62 = tested on: UACC-62
SF-268 = tested on: SF-268
MDA-MB-435 = tested on: MDA-MB-435
ACHN = tested on: ACHN
SK-MEL-2 = tested on: SK-MEL-2
NCI/ADR-RES = tested on: NCI/ADR-RES
SK-MEL-5 = tested on: SK-MEL-5
NCI-H226 = tested on: NCI-H226
HL-60 = tested on: HL-60
NCI-H23 = tested on: NCI-H23
COLO 205 = tested on: COLO 205
K562 = tested on: K562
NCI-H460 = tested on: NCI-H460
LOX IMVI = tested on: LOX IMVI
MOLT-4 = tested on: MOLT-4
EKVX = tested on: EKVX
HCC 2998 = tested on: HCC 2998
CAKI-1 = tested on: CAKI-1
SR = tested on: SR
SNB-75 = tested on: SNB-75
Hs-578T = tested on: Hs-578T
RXF 393 = tested on: RXF 393
OVCAR-4 = tested on: OVCAR-4
Malme-3M = tested on: Malme-3M
SNB-19 = tested on: SNB-19
HCT-15 = tested on: HCT-15
OVCAR-3 = tested on: OVCAR-3
HCT-116 = tested on: HCT-116
OVCAR-5 = tested on: OVCAR-5
A498 = tested on: A498
A549 = tested on: A549
SK-OV-3 = tested on: SK-OV-3
MDA-N = tested on: MDA-N
CCRF-CEM = tested on: CCRF-CEM
SF-295 = tested on: SF-295
KM12 = tested on: KM12
OVCAR-8 = tested on: OVCAR-8
DU-145 = tested on: DU-145
HOP-62 = tested on: HOP-62
RPMI-8226 = tested on: RPMI-8226
MDA-MB-231 = tested on: MDA-MB-231
PC-3 = tested on: PC-3
IGROV-1 = tested on: IGROV-1
T47D = tested on: T47D
786-0 = tested on: 786-0
U-251 = tested on: U-251
UO-31 = tested on: UO-31
SK-MEL-28 = tested on: SK-MEL-28
MCF7 = tested on: MCF7
NCI-H522 = tested on: NCI-H522
M14 = tested on: M14
SN12C = tested on: SN12C
HT-29 = tested on: HT-29
SF-539 = tested on: SF-539
UACC-257 = tested on: UACC-257
TK-10 = tested on: TK-10
HOP-92 = tested on: HOP-92

## CCOC(=O)c1ccc(C(=O)/C(C#N)=C2\CCCN2)n1C
SW-620
  GI50: > 100 µM (inactive)
BT-549
  GI50: 78.9 µM (inactive)
UACC-62
  GI50: > 100 µM (inactive)
SF-268
  GI50: > 100 µM (inactive)
MDA-MB-435
  GI50: 31.2 µM (inactive)
ACHN
  GI50: > 100 µM (inactive)
SK-MEL-2
  GI50: > 100 µM (inactive)
NCI/ADR-RES
  GI50: 34.2 µM (inactive)
SK-MEL-5
  GI50: 33.6 µM (inactive)
NCI-H226
  GI50: 79.1 µM (inactive)
HL-60
  GI50: 34.2 µM (inactive)
NCI-H23
  GI50: 97.5 µM (inactive)
COLO 205
  GI50: > 100 µM (inactive)
K562
  GI50: 13.3 µM (inactive)
NCI-H460
  GI50: > 100 µM (inactive)
LOX IMVI
  GI50: 86.5 µM (inactive)
MOLT-4
  GI50: 13.6 µM (inactive)
EKVX
  GI50: > 100 µM (inactive)
HCC 2998
  GI50: > 100 µM (inactive)
CAKI-1
  GI50: > 100 µM (inactive)
SR
  GI50: 31 µM (inactive)
SNB-75
  GI50: 24.7 µM (inactive)
Hs-578T
  GI50: > 100 µM (inactive)
RXF 393
  GI50: 25.7 µM (inactive)
OVCAR-4
  GI50: > 100 µM (inactive)
Malme-3M
  GI50: > 100 µM (inactive)
SNB-19
  GI50: > 100 µM (inactive)
HCT-15
  GI50: 76.4 µM
OVCAR-3
  GI50: 68.4 µM (inactive)
HCT-116
  GI50: > 100 µM (inactive)
OVCAR-5
  GI50: > 100 µM (inactive)
A498
  GI50: > 100 µM (inactive)
A549
  GI50: > 100 µM (inactive)
SK-OV-3
  GI50: > 100 µM (inactive)
MDA-N
  GI50: 34 µM (inactive)
CCRF-CEM
  GI50: > 100 µM (inactive)
SF-295
  GI50: > 100 µM (inactive)
KM12
  GI50: > 100 µM (inactive)
OVCAR-8
  GI50: > 100 µM (inactive)
DU-145
  GI50: 95.1 µM (inactive)
HOP-62
  GI50: > 100 µM (inactive)
RPMI-8226
  GI50: 0.703 µM (active)
MDA-MB-231
  GI50: > 100 µM (inactive)
PC-3
  GI50: > 100 µM (inactive)
IGROV-1
  GI50: > 100 µM (inactive)
T47D
  GI50: 28.2 µM (inactive)
786-0
  GI50: > 100 µM (inactive)
U-251
  GI50: > 100 µM (inactive)
UO-31
  GI50: > 100 µM (inactive)
SK-MEL-28
  GI50: > 100 µM (inactive)
MCF7
  GI50: 40.4 µM (inactive)
NCI-H522
  GI50: 95.7 µM (inactive)
M14
  GI50: > 100 µM (inactive)
SN12C
  GI50: > 100 µM (inactive)
HT-29
  GI50: 79.4 µM (inactive)

## COc1cc(OCc2ccc3oc(=O)c(-c4ccccc4)nc3c2)cc(OC)c1OC
SW-620
  GI50: > 100 µM (inactive)
BT-549
  GI50: > 100 µM (inactive)
UACC-62
  GI50: > 100 µM (inactive)
SF-268
  GI50: > 100 µM (inactive)
MDA-MB-435
  GI50: > 100 µM (inactive)
ACHN
  GI50: > 100 µM (inactive)
SK-MEL-2
  GI50: > 100 µM (inactive)
NCI/ADR-RES
  GI50: > 100 µM (inactive)
SK-MEL-5
  GI50: > 100 µM (inactive)
SF-539
  GI50: > 100 µM (inactive)
NCI-H226
  GI50: > 100 µM (inactive)
NCI-H23
  GI50: > 100 µM (inactive)
UACC-257
  GI50: > 100 µM (inactive)
COLO 205
  GI50: > 100 µM (inactive)
K562
  GI50: > 100 µM (inactive)
NCI-H460
  GI50: > 100 µM (inactive)
LOX IMVI
  GI50: > 100 µM (inactive)
MOLT-4
  GI50: > 100 µM (inactive)
HCC 2998
  GI50: > 100 µM (inactive)
SR
  GI50: > 100 µM (inactive)
SNB-75
  GI50: > 100 µM (inactive)
Hs-578T
  GI50: > 100 µM (inactive)
RXF 393
  GI50: > 100 µM (inactive)
OVCAR-4
  GI50: > 100 µM (inactive)
Malme-3M
  GI50: > 100 µM (inactive)
SNB-19
  GI50: > 100 µM (inactive)
HCT-15
  GI50: > 100 µM
OVCAR-3
  GI50: > 100 µM (inactive)
HCT-116
  GI50: > 100 µM (inactive)
OVCAR-5
  GI50: > 100 µM (inactive)
A498
  GI50: > 100 µM (inactive)
A549
  GI50: > 100 µM (inactive)
SK-OV-3
  GI50: > 100 µM (inactive)
MDA-N
  GI50: > 100 µM (inactive)
CCRF-CEM
  GI50: > 100 µM (inactive)
SF-295
  GI50: > 100 µM (inactive)
OVCAR-8
  GI50: > 100 µM (inactive)
DU-145
  GI50: > 100 µM (inactive)
HOP-62
  GI50: > 100 µM (inactive)
RPMI-8226
  GI50: > 100 µM (inactive)
MDA-MB-231
  GI50: > 100 µM (inactive)
PC-3
  GI50: > 100 µM (inactive)
IGROV-1
  GI50: > 100 µM (inactive)
T47D
  GI50: 38.9 µM (inactive)
786-0
  GI50: > 100 µM (inactive)
U-251
  GI50: > 100 µM (inactive)
UO-31
  GI50: > 100 µM (inactive)
SK-MEL-28
  GI50: > 100 µM (inactive)
MCF7
  GI50: > 100 µM (inactive)
NCI-H522
  GI50: > 100 µM (inactive)
M14
  GI50: > 100 µM (inactive)
SN12C
  GI50: > 100 µM (inactive)
HT-29
  GI50: > 100 µM (inactive)
TK-10
  GI50: > 100 µM (inactive)

## O=C(CCc1cc(O)cc(O)c1)NCCc1ccc(O)c(O)c1
SW-620
  GI50: > 100 µM (inactive)
BT-549
  GI50: > 100 µM (inactive)
UACC-62
  GI50: > 100 µM (inactive)
SF-268
  GI50: > 100 µM (inactive)
MDA-MB-435
  GI50: 21.6 µM (inactive)
ACHN
  GI50: > 100 µM (inactive)
SK-MEL-2
  GI50: > 100 µM (inactive)
NCI/ADR-RES
  GI50: > 100 µM (inactive)
SK-MEL-5
  GI50: > 100 µM (inactive)
SF-539
  GI50: > 100 µM (inactive)
NCI-H226
  GI50: > 100 µM (inactive)
NCI-H23
  GI50: > 100 µM (inactive)
UACC-257
  GI50: > 100 µM (inactive)
COLO 205
  GI50: > 100 µM (inactive)
K562
  GI50: > 10 µM (inactive)
NCI-H460
  GI50: > 100 µM (inactive)
LOX IMVI
  GI50: > 100 µM (inactive)
MOLT-4
  GI50: > 100 µM (inactive)
EKVX
  GI50: > 100 µM (inactive)
HCC 2998
  GI50: > 100 µM (inactive)
CAKI-1
  GI50: > 100 µM (inactive)
SR
  GI50: > 100 µM (inactive)
SNB-75
  GI50: > 100 µM (inactive)
Hs-578T
  GI50: > 100 µM (inactive)
RXF 393
  GI50: > 100 µM (inactive)
HOP-92
  GI50: > 100 µM (inactive)
SNB-19
  GI50: > 100 µM (inactive)
HCT-15
  GI50: > 100 µM
OVCAR-3
  GI50: > 100 µM (inactive)
HCT-116
  GI50: > 100 µM (inactive)
OVCAR-5
  GI50: > 100 µM (inactive)
A498
  GI50: > 100 µM (inactive)
A549
  GI50: > 100 µM (inactive)
SK-OV-3
  GI50: > 100 µM (inactive)
MDA-N
  GI50: 36.7 µM (inactive)
CCRF-CEM
  GI50: 17.3 µM (inactive)
SF-295
  GI50: > 100 µM (inactive)
KM12
  GI50: > 100 µM (inactive)
OVCAR-8
  GI50: > 100 µM (inactive)
DU-145
  GI50: > 100 µM (inactive)
HOP-62
  GI50: > 100 µM (inactive)
RPMI-8226
  GI50: > 100 µM (inactive)
MDA-MB-231
  GI50: > 100 µM (inactive)
PC-3
  GI50: > 100 µM (inactive)
IGROV-1
  GI50: > 100 µM (inactive)
T47D
  GI50: > 100 µM (inactive)
786-0
  GI50: > 100 µM (inactive)
U-251
  GI50: > 100 µM (inactive)
UO-31
  GI50: > 100 µM (inactive)
SK-MEL-28
  GI50: > 100 µM (inactive)
MCF7
  GI50: > 100 µM (inactive)
NCI-H522
  GI50: > 100 µM (inactive)
M14
  GI50: > 100 µM (inactive)
SN12C
  GI50: > 100 µM (inactive)
HT-29
  GI50: > 100 µM (inactive)
TK-10
  GI50: > 100 µM (inactive)

From ChEMBL document CHEMBL1201862, “PubChem BioAssay data set” (2004)
